# According to publication PMC6915728 (Nature Communications, 2019):
# Read-outs that look alike come from different tables or passages of the source.
# What was measured:
# [1] = test system: AMP-evolved E. coli lines; assay: Cross-resistance / collateral sensitivity: relative MIC change of 38 laboratory-evolved AMP-resistant lines vs parental strain; type: cell-based, Escherichia coli; settings: measured here
# Source text: Here, we extended this dataset by measuring susceptibility changes of the same evolved lines to four additional AMPs using identical protocols to represent AMPs from all four clusters (Supplementary Fig. 15a, see also Methods). Overall, the resulting dataset of susceptibility profiles provides a comprehensive map of cross-resistance and collateral sensitivity between AMPs representing various modes of action.
# To characterize the cross-resistance of the 38 E. coli lineages we obtained relative MIC changes that are, the MIC values of the evolved lines compared to these of the parental strain, from two data sources. First, we used already measured relative MIC changes from Spohn et al. Supplementary data 4[20]. […] Second, we extended this dataset by measuring the relative MIC changes of the same evolved lines to four additional AMPs using identical protocol. […] In this way, AMPs from each cluster were represented in the dataset.
# Supplementary Figure 15. […] Relative change in MIC was determined for each evolved line by comparing its MIC to the ancestral cell line (control). […] CAP18-adaped lines were not included in the analysis because CAP18 is known as a membrane-targeting AMP in the literature. c, Cross-resistance interactions are enriched between membrane-targeting AMPs that are in the same chemical-genetic clusters (i.e. AMP pairs within C1 and within C2 clusters) (Significant difference: ** P = 0.0082 from two-sided Fisher’s exact test, n = 61 and 62 for within cluster and between clusters, respectively). […] Source data are provided as a Source Data file.
# [2] = test system: AMP-evolved E. coli lines; settings: ref Spohn et al 2019, cited from earlier work
# Source text: Supplement 41467_2019_13618_MOESM13_ESM.xlsx, sheet "Figure 6 and S15" | column: A comprehensive dataset of antimicrobial susceptibility of AMP-adapted lines to antimicrobial peptides (AMPs).
sequence,measurement,setting,value
"GIGKFLKKAKKFGKAFVKILKK [PEX, Pexiganan, synthetic Magainin derivative; disrupts cell membrane; cluster C2]",Relative change in MIC (MIC of the AMP-adpated line / MIC of the ancestral strain),[1]; AMP-adapted line BAC5_3,1
same,Relative change in MIC (MIC of the AMP-adpated line / MIC of the ancestral strain),[1]; AMP-adapted line BAC5_5,1
same,Relative change in MIC (MIC of the AMP-adpated line / MIC of the ancestral strain),[1]; AMP-adapted line BAC5_7,1.1
same,Relative change in MIC (MIC of the AMP-adpated line / MIC of the ancestral strain),[1]; AMP-adapted line BAC5_10,1.1
same,Relative change in MIC (MIC of the AMP-adpated line / MIC of the ancestral strain),[1]; AMP-adapted line CAP18_2,3.036
same,Relative change in MIC (MIC of the AMP-adpated line / MIC of the ancestral strain),[1]; AMP-adapted line CAP18_5,>3.6
same,Relative change in MIC (MIC of the AMP-adpated line / MIC of the ancestral strain),[1]; AMP-adapted line CAP18_6,1.964
same,Relative change in MIC (MIC of the AMP-adpated line / MIC of the ancestral strain),[1]; AMP-adapted line CAP18_8,2.986
same,Relative change in MIC (MIC of the AMP-adpated line / MIC of the ancestral strain),[1]; AMP-adapted line CAP18_10,2.488
same,Relative change in MIC (MIC of the AMP-adpated line / MIC of the ancestral strain),[1]; AMP-adapted line HBD3_3,3.648
same,Relative change in MIC (MIC of the AMP-adpated line / MIC of the ancestral strain),[1]; AMP-adapted line HBD3_6,2.089
same,Relative change in MIC (MIC of the AMP-adpated line / MIC of the ancestral strain),[1]; AMP-adapted line HBD3_8,3.578
same,Relative change in MIC (MIC of the AMP-adpated line / MIC of the ancestral strain),[1]; AMP-adapted line HBD3_10,2.72
same,Relative change in MIC (MIC of the AMP-adpated line / MIC of the ancestral strain),[1]; AMP-adapted line LL37_1,1.584
same,Relative change in MIC (MIC of the AMP-adpated line / MIC of the ancestral strain),[1]; AMP-adapted line LL37_3,1.32
same,Relative change in MIC (MIC of the AMP-adpated line / MIC of the ancestral strain),[1]; AMP-adapted line LL37_6,1.22
same,Relative change in MIC (MIC of the AMP-adpated line / MIC of the ancestral strain),[1]; AMP-adapted line LL37_7,2.986
same,Relative change in MIC (MIC of the AMP-adpated line / MIC of the ancestral strain),[1]; AMP-adapted line LL37_10,2.093
same,Relative change in MIC (MIC of the AMP-adpated line / MIC of the ancestral strain),[1]; AMP-adapted line PR39_1,1.464
same,Relative change in MIC (MIC of the AMP-adpated line / MIC of the ancestral strain),[1]; AMP-adapted line PR39_2,1.1
same,Relative change in MIC (MIC of the AMP-adpated line / MIC of the ancestral strain),[1]; AMP-adapted line PR39_5,1.1
same,Relative change in MIC (MIC of the AMP-adpated line / MIC of the ancestral strain),[1]; AMP-adapted line PR39_7,1.1
same,Relative change in MIC (MIC of the AMP-adpated line / MIC of the ancestral strain),[1]; AMP-adapted line PR39_10,1
same,Relative change in MIC (MIC of the AMP-adpated line / MIC of the ancestral strain),[1]; AMP-adapted line PROA_2,1.1
same,Relative change in MIC (MIC of the AMP-adpated line / MIC of the ancestral strain),[1]; AMP-adapted line PROA_3,1.1
same,Relative change in MIC (MIC of the AMP-adpated line / MIC of the ancestral strain),[1]; AMP-adapted line PROA_7,0.915
same,Relative change in MIC (MIC of the AMP-adpated line / MIC of the ancestral strain),[1]; AMP-adapted line PROA_8,1.2
same,Relative change in MIC (MIC of the AMP-adpated line / MIC of the ancestral strain),[1]; AMP-adapted line PROA_9,1
same,Relative change in MIC (MIC of the AMP-adpated line / MIC of the ancestral strain),[1]; AMP-adapted line PXB_2,1.32
same,Relative change in MIC (MIC of the AMP-adpated line / MIC of the ancestral strain),[1]; AMP-adapted line PXB_5,1.844
same,Relative change in MIC (MIC of the AMP-adpated line / MIC of the ancestral strain),[1]; AMP-adapted line PXB_6,1.6368
same,Relative change in MIC (MIC of the AMP-adpated line / MIC of the ancestral strain),[1]; AMP-adapted line PXB_8,1.844
same,Relative change in MIC (MIC of the AMP-adpated line / MIC of the ancestral strain),[1]; AMP-adapted line PXB_10,>3.6
"RWCFRVCYRGICYRKCR [TPII, Tachyplesin II, antimicrobial peptide from Japanese horseshoe crab; disrupts cell membrane; cluster C1]",Relative change in MIC (MIC of the AMP-adpated line / MIC of the ancestral strain),[2]; AMP-adapted line BAC5_3,1
same,Relative change in MIC (MIC of the AMP-adpated line / MIC of the ancestral strain),[2]; AMP-adapted line BAC5_5,1
same,Relative change in MIC (MIC of the AMP-adpated line / MIC of the ancestral strain),[2]; AMP-adapted line BAC5_7,1.1
same,Relative change in MIC (MIC of the AMP-adpated line / MIC of the ancestral strain),[2]; AMP-adapted line BAC5_10,1.1
same,Relative change in MIC (MIC of the AMP-adpated line / MIC of the ancestral strain),[2]; AMP-adapted line CAP18_2,1.1
same,Relative change in MIC (MIC of the AMP-adpated line / MIC of the ancestral strain),[2]; AMP-adapted line CAP18_5,1
same,Relative change in MIC (MIC of the AMP-adpated line / MIC of the ancestral strain),[2]; AMP-adapted line CAP18_6,1
same,Relative change in MIC (MIC of the AMP-adpated line / MIC of the ancestral strain),[2]; AMP-adapted line CAP18_8,1.1
same,Relative change in MIC (MIC of the AMP-adpated line / MIC of the ancestral strain),[2]; AMP-adapted line CAP18_10,1
same,Relative change in MIC (MIC of the AMP-adpated line / MIC of the ancestral strain),[2]; AMP-adapted line HBD3_3,1.2
same,Relative change in MIC (MIC of the AMP-adpated line / MIC of the ancestral strain),[2]; AMP-adapted line HBD3_6,1.2
same,Relative change in MIC (MIC of the AMP-adpated line / MIC of the ancestral strain),[2]; AMP-adapted line HBD3_8,1.2
same,Relative change in MIC (MIC of the AMP-adpated line / MIC of the ancestral strain),[2]; AMP-adapted line HBD3_10,1.2
same,Relative change in MIC (MIC of the AMP-adpated line / MIC of the ancestral strain),[2]; AMP-adapted line LL37_1,1.1
same,Relative change in MIC (MIC of the AMP-adpated line / MIC of the ancestral strain),[2]; AMP-adapted line LL37_3,1.1
same,Relative change in MIC (MIC of the AMP-adpated line / MIC of the ancestral strain),[2]; AMP-adapted line LL37_6,1
same,Relative change in MIC (MIC of the AMP-adpated line / MIC of the ancestral strain),[2]; AMP-adapted line LL37_7,1
same,Relative change in MIC (MIC of the AMP-adpated line / MIC of the ancestral strain),[2]; AMP-adapted line LL37_10,1
same,Relative change in MIC (MIC of the AMP-adpated line / MIC of the ancestral strain),[2]; AMP-adapted line PEX_1,1.1
same,Relative change in MIC (MIC of the AMP-adpated line / MIC of the ancestral strain),[2]; AMP-adapted line PEX_4,1.2
same,Relative change in MIC (MIC of the AMP-adpated line / MIC of the ancestral strain),[2]; AMP-adapted line PEX_5,1.1
same,Relative change in MIC (MIC of the AMP-adpated line / MIC of the ancestral strain),[2]; AMP-adapted line PEX_6,1
same,Relative change in MIC (MIC of the AMP-adpated line / MIC of the ancestral strain),[2]; AMP-adapted line PEX_7,1
same,Relative change in MIC (MIC of the AMP-adpated line / MIC of the ancestral strain),[2]; AMP-adapted line PR39_1,1
same,Relative change in MIC (MIC of the AMP-adpated line / MIC of the ancestral strain),[2]; AMP-adapted line PR39_2,0.9
same,Relative change in MIC (MIC of the AMP-adpated line / MIC of the ancestral strain),[2]; AMP-adapted line PR39_5,0.9
same,Relative change in MIC (MIC of the AMP-adpated line / MIC of the ancestral strain),[2]; AMP-adapted line PR39_7,0.9
same,Relative change in MIC (MIC of the AMP-adpated line / MIC of the ancestral strain),[2]; AMP-adapted line PR39_10,0.9
same,Relative change in MIC (MIC of the AMP-adpated line / MIC of the ancestral strain),[2]; AMP-adapted line PROA_2,1.1
same,Relative change in MIC (MIC of the AMP-adpated line / MIC of the ancestral strain),[2]; AMP-adapted line PROA_3,0.8
same,Relative change in MIC (MIC of the AMP-adpated line / MIC of the ancestral strain),[2]; AMP-adapted line PROA_7,1
same,Relative change in MIC (MIC of the AMP-adpated line / MIC of the ancestral strain),[2]; AMP-adapted line PROA_8,1
same,Relative change in MIC (MIC of the AMP-adpated line / MIC of the ancestral strain),[2]; AMP-adapted line PROA_9,1.1
same,Relative change in MIC (MIC of the AMP-adpated line / MIC of the ancestral strain),[2]; AMP-adapted line PXB_2,1.1
same,Relative change in MIC (MIC of the AMP-adpated line / MIC of the ancestral strain),[2]; AMP-adapted line PXB_5,1
same,Relative change in MIC (MIC of the AMP-adpated line / MIC of the ancestral strain),[2]; AMP-adapted line PXB_6,1.1
same,Relative change in MIC (MIC of the AMP-adpated line / MIC of the ancestral strain),[2]; AMP-adapted line PXB_8,1
same,Relative change in MIC (MIC of the AMP-adpated line / MIC of the ancestral strain),[2]; AMP-adapted line PXB_10,1.1
